In ChEMBL document CHEMBL1201861, “Genomics of Drug Sensitity in Cancer screening data, Wellcome Trust Sanger Institute”:
pIC50: −log10 of the molar value.

Legend:
Test in all cases: cells
SF-268 = format: functional, cell-based, Homo sapiens; conditions: Homo sapiens, SF-268;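 further: growth inhibition of SF-268 cells determined with a cell viability assay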
Description: SANGER: Inhibition of human SF268 cell growth in a cell viability assay.

COLO-668 = format: functional, cell-based, Homo sapiens; conditions: Homo sapiens, COLO-668
Description: SANGER: Inhibition of human COLO-668 cell growth in a cell viability assay.

EW-18 = format: functional, cell-based, Homo sapiens; conditions: Homo sapiens, EW-18;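 further: growth inhibition of EW-18 cells, read out by a cell viability assay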
Description: SANGER: Inhibition of human EW-18 cell growth in a cell viability assay.

ES6 = format: functional, cell-based, Homo sapiens; conditions: Homo sapiens, ES6;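 further: growth inhibition of human ES6 cells, read out with a cell viability assay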
Description: SANGER: Inhibition of human ES6 cell growth in a cell viability assay.

GCIY = format: functional, cell-based, Homo sapiens; conditions: Homo sapiens, GCIY;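 further: growth inhibition of the human GCIY cell line, read out by a cell viability assay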
Description: SANGER: Inhibition of human GCIY cell growth in a cell viability assay.

DB = format: functional, cell-based, Homo sapiens; conditions: Homo sapiens, DB
Description: SANGER: Inhibition of human DB cell growth in a cell viability assay.

KGN = format: functional, cell-based, Homo sapiens; conditions: Homo sapiens, KGN;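 further: growth inhibition of KGN cells, read out with a cell viability assay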
Description: SANGER: Inhibition of human KGN cell growth in a cell viability assay.

HuTu80 = format: functional, cell-based, Homo sapiens, HUTU-80; conditions: Homo sapiens, HuTu80;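 further: growth inhibition of HuTu80 human cells, determined with a cell viability readout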
Description: SANGER: Inhibition of human HUTU-80 cell growth in a cell viability assay.

MN-60 = format: functional, cell-based, Homo sapiens; conditions: Homo sapiens, MN-60;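 further: growth inhibition of the MN-60 cell line, determined with a cell viability assay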
Description: SANGER: Inhibition of human MN-60 cell growth in a cell viability assay.

NKM-1 = format: functional, cell-based, Homo sapiens; conditions: Homo sapiens, NKM-1;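 further: growth inhibition of NKM-1 cells, read out with a cell viability assay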
Description: SANGER: Inhibition of human NKM-1 cell growth in a cell viability assay.

no-10 = format: functional, cell-based, Homo sapiens; conditions: Homo sapiens;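 further: growth inhibition of no-10 cells, read out with a cell viability assay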
Description: SANGER: Inhibition of human no-10 cell growth in a cell viability assay.

EKVX = format: functional, cell-based, Homo sapiens; conditions: Homo sapiens, EKVX;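 further: growth inhibition of human EKVX cells, read out with a cell viability assay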
Description: SANGER: Inhibition of human EKVX cell growth in a cell viability assay.

JVM-3 = format: functional, cell-based, Homo sapiens; conditions: Homo sapiens, JVM-3;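 further: growth inhibition of human JVM-3 cells, read out with a cell viability assay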
Description: SANGER: Inhibition of human JVM-3 cell growth in a cell viability assay.

NB5 = format: functional, cell-based, Homo sapiens; conditions: Homo sapiens, NB5;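 further: growth inhibition of NB5 cells, read out as cell viability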
Description: SANGER: Inhibition of human NB5 cell growth in a cell viability assay.

BT-474 = format: functional, cell-based, Homo sapiens; conditions: Homo sapiens, BT-474
Description: SANGER: Inhibition of human BT-474 cell growth in a cell viability assay.

TGBC24TKB = format: functional, cell-based, Homo sapiens; conditions: Homo sapiens, TGBC24TKB;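 further: growth inhibition of human TGBC24TKB cells, read out with a cell viability assay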
Description: SANGER: Inhibition of human TGBC24TKB cell growth in a cell viability assay.

TE-12 = format: functional, cell-based, Homo sapiens; conditions: Homo sapiens, TE-12;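 further: growth inhibition of TE-12 cells, read out by a cell viability assay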
Description: SANGER: Inhibition of human TE-12 cell growth in a cell viability assay.

IST-MEL1 = format: functional, cell-based, Homo sapiens; conditions: Homo sapiens, IST-MEL1;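 further: growth inhibition of the cell line, read out with a cell viability assay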
Description: SANGER: Inhibition of human IST-MEL1 cell growth in a cell viability assay.

KY821 = format: functional, cell-based, Homo sapiens; conditions: Homo sapiens, KY821;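 further: growth inhibition of human KY821 cells, read out by a cell viability assay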
Description: SANGER: Inhibition of human KY821 cell growth in a cell viability assay.

NB6 = format: functional, cell-based, Homo sapiens; conditions: Homo sapiens, NB6;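 further: growth inhibition of NB6 cells, read out by a cell viability assay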
Description: SANGER: Inhibition of human NB6 cell growth in a cell viability assay.

HT-144 = format: functional, cell-based, Homo sapiens; conditions: Homo sapiens, HT-144
Description: SANGER: Inhibition of human HT-144 cell growth in a cell viability assay.

MHH-PREB-1 = format: functional, cell-based, Homo sapiens; conditions: Homo sapiens, MHH-PREB-1;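 further: cell viability assay measuring inhibition of proliferation of human MHH-PREB-1 cells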
Description: SANGER: Inhibition of human MHH-PREB-1 cell growth in a cell viability assay.

CW-2 = format: functional, cell-based, Homo sapiens; conditions: Homo sapiens, CW-2;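 further: growth inhibition of CW-2 cells, read out by a cell viability assay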
Description: SANGER: Inhibition of human CW-2 cell growth in a cell viability assay.

EOL1 = format: functional, cell-based, Homo sapiens; conditions: Homo sapiens, EOL1;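 further: growth inhibition of EoL-1 cells, read out by a cell viability assay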
Description: SANGER: Inhibition of human EoL-1-cell cell growth in a cell viability assay.

RXF 393 = format: functional, cell-based, Homo sapiens; conditions: Homo sapiens, RXF 393;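 further: growth inhibition of human RXF 393 cells, read out with a cell viability assay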
Description: SANGER: Inhibition of human RXF393 cell growth in a cell viability assay.

NEC8 = format: functional, cell-based, Homo sapiens; conditions: Homo sapiens, NEC8;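 further: growth inhibition of human NEC8 cells, read out by a cell viability assay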
Description: SANGER: Inhibition of human NEC8 cell growth in a cell viability assay.

MOLT-4 = format: functional, cell-based, Homo sapiens; conditions: Homo sapiens, MOLT-4;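 further: growth inhibition of MOLT-4 cells, determined with a cell viability readout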
Description: SANGER: Inhibition of human MOLT-4 cell growth in a cell viability assay.

SW982 = format: functional, cell-based, Homo sapiens; conditions: Homo sapiens, SW982;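 further: growth inhibition of SW982 cells, read out with a cell viability assay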
Description: SANGER: Inhibition of human SW982 cell growth in a cell viability assay.

CP66-MEL = format: functional, cell-based, Homo sapiens; conditions: Homo sapiens, CP66-MEL;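 further: growth inhibition of CP66-MEL cells determined in a cell viability assay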
Description: SANGER: Inhibition of human CP66-MEL cell growth in a cell viability assay.

SK-N-FI = format: functional, cell-based, Homo sapiens; conditions: Homo sapiens, SK-N-FI;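 further: cell viability assay measuring growth inhibition of human SK-N-FI cells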
Description: SANGER: Inhibition of human SK-N-FI cell growth in a cell viability assay.

8-MG-BA = format: functional, cell-based, Homo sapiens; conditions: Homo sapiens, 8-MG-BA;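 further: growth inhibition of 8-MG-BA cells, read out with a cell viability assay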
Description: SANGER: Inhibition of human 8-MG-BA cell growth in a cell viability assay.

KNS-42 = format: functional, cell-based, Homo sapiens; conditions: Homo sapiens, KNS-42;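 further: growth inhibition of KNS-42 cells, read out with a cell viability assay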
Description: SANGER: Inhibition of human KNS-42 cell growth in a cell viability assay.

MZ1-PC = format: functional, cell-based, Homo sapiens; conditions: Homo sapiens, MZ1-PC;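 further: cell viability assay measuring growth inhibition of human MZ1-PC cells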
Description: SANGER: Inhibition of human MZ1-PC cell growth in a cell viability assay.

MS-1 = format: functional, cell-based, Homo sapiens; conditions: Homo sapiens, MS-1;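 further: growth inhibition of MS-1 cells, read out by cell viability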
Description: SANGER: Inhibition of human MS-1 cell growth in a cell viability assay.

ETK-1 = format: functional, cell-based, Homo sapiens; conditions: Homo sapiens, ETK-1;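 further: growth inhibition of human ETK-1 cells, read out with a cell viability assay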
Description: SANGER: Inhibition of human ETK-1 cell growth in a cell viability assay.

OMC-1 = format: functional, cell-based, Homo sapiens; conditions: Homo sapiens, OMC-1;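 further: growth inhibition of the OMC-1 cell line, measured by a cell viability assay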
Description: SANGER: Inhibition of human OMC-1 cell growth in a cell viability assay.

Lu-65 = format: functional, cell-based, Homo sapiens; conditions: Homo sapiens, Lu-65;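 further: growth inhibition of Lu-65 cancer cells, read out by a cell viability assay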
Description: SANGER: Inhibition of human LU-65 cell growth in a cell viability assay.

MEG-01 = format: functional, cell-based, Homo sapiens; conditions: Homo sapiens, MEG-01;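 further: growth inhibition of MEG-01 cells, read out by a cell viability assay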
Description: SANGER: Inhibition of human MEG-01 cell growth in a cell viability assay.

DOHH-2 = format: functional, cell-based, Homo sapiens; conditions: Homo sapiens, DOHH-2;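 further: growth inhibition of human DOHH-2 cells, read out with a cell viability assay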
Description: SANGER: Inhibition of human DOHH-2 cell growth in a cell viability assay.

LB2241-RCC = format: functional, cell-based, Homo sapiens; conditions: Homo sapiens, LB2241-RCC;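 further: cell viability assay measuring how strongly the cultured human renal carcinoma line is prevented from growing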
Description: SANGER: Inhibition of human LB2241-RCC cell growth in a cell viability assay.

BB65-RCC = format: functional, cell-based, Homo sapiens; conditions: Homo sapiens, BB65-RCC;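 further: growth inhibition of the cell line, measured with a cell viability assay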
Description: SANGER: Inhibition of human BB65-RCC cell growth in a cell viability assay.

NCI-H1092 = format: functional, cell-based, Homo sapiens; conditions: Homo sapiens, NCI-H1092;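 further: cell growth inhibition measured with a cell viability assay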
Description: SANGER: Inhibition of human NCI-H1092 cell growth in a cell viability assay.

CTV-1 = format: functional, cell-based, Homo sapiens; conditions: Homo sapiens, CTV-1;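 further: growth inhibition of the cell line, read out with a cell viability assay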
Description: SANGER: Inhibition of human CTV-1 cell growth in a cell viability assay.

NOMO-1 = format: functional, cell-based, Homo sapiens; conditions: Homo sapiens, NOMO-1;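 further: growth inhibition of human NOMO-1 cells measured by a cell viability assay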
Description: SANGER: Inhibition of human NOMO-1 cell growth in a cell viability assay.

TGW = format: functional, cell-based, Homo sapiens; conditions: Homo sapiens, TGW;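 further: growth inhibition of human TGW cells, read out with a cell viability assay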
Description: SANGER: Inhibition of human TGW cell growth in a cell viability assay.

MV4-11 = format: functional, cell-based, Homo sapiens, MV-4-11; conditions: Homo sapiens, MV4-11;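 further: cell viability readout measuring growth inhibition of human MV-4-11 cells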
Description: SANGER: Inhibition of human MV-4-11 cell growth in a cell viability assay.

SW684 = format: functional, cell-based, Homo sapiens; conditions: Homo sapiens, SW684;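 further: growth inhibition of human SW684 cells, measured by a cell viability assay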
Description: SANGER: Inhibition of human SW684 cell growth in a cell viability assay.

KM12 = format: functional, cell-based, Homo sapiens; conditions: Homo sapiens, KM12;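 further: KM12 cell growth inhibition, read out with a cell viability assay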
Description: SANGER: Inhibition of human KM12 cell growth in a cell viability assay.

NCI-H1155 = format: functional, cell-based, Homo sapiens; conditions: Homo sapiens, NCI-H1155;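 further: cell growth inhibition measured by a viability assay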
Description: SANGER: Inhibition of human NCI-H1155 cell growth in a cell viability assay.

RKO = format: functional, cell-based, Homo sapiens; conditions: Homo sapiens, RKO;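 further: growth inhibition of human RKO cells, read out with a cell viability assay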
Description: SANGER: Inhibition of human RKO cell growth in a cell viability assay.

COc1cc(-c2nn([C@H]3CC[C@H](N4CCN(C(C)=O)CC4)CC3)c3ncnc(N)c23)ccc1NC(=O)c1cc2ccccc2n1C
pIC50 (SF-268): 5.40
pIC50 (COLO-668): < 5.29
pIC50 (EW-18): < 5.29
pIC50 (ES6): 5.71
pIC50 (GCIY): 5.39
pIC50 (DB): < 5.29
pIC50 (KGN): 6.05
pIC50 (HuTu80): 5.82
pIC50 (MN-60): < 5.29
pIC50 (NKM-1): < 5.29
pIC50 (no-10): 5.66
pIC50 (EKVX): < 5.29
pIC50 (JVM-3): < 5.29
pIC50 (NB5): < 5.29
pIC50 (BT-474): < 5.29
pIC50 (TGBC24TKB): 6.09
pIC50 (TE-12): 6.39
pIC50 (IST-MEL1): 6.08
pIC50 (KY821): 5.44
pIC50 (NB6): < 5.29
pIC50 (HT-144): < 5.29
pIC50 (MHH-PREB-1): 5.31
pIC50 (CW-2): < 5.29
pIC50 (EOL1): 5.34
pIC50 (RXF 393): 5.95
pIC50 (NEC8): < 5.29
pIC50 (MOLT-4): < 5.29
pIC50 (SW982): 6.41
pIC50 (CP66-MEL): < 5.29
pIC50 (SK-N-FI): < 5.29
pIC50 (8-MG-BA): 5.34
pIC50 (KNS-42): < 5.29
pIC50 (MZ1-PC): 6.23
pIC50 (MS-1): < 5.29
pIC50 (ETK-1): 6.46
pIC50 (OMC-1): < 5.29
pIC50 (Lu-65): < 5.29
pIC50 (MEG-01): 6.77
pIC50 (DOHH-2): 7.41
pIC50 (LB2241-RCC): < 5.29
pIC50 (BB65-RCC): 5.30
pIC50 (NCI-H1092): < 5.29
pIC50 (CTV-1): > 7.70
pIC50 (NOMO-1): < 5.29
pIC50 (TGW): < 5.29
pIC50 (MV4-11): < 5.29
pIC50 (SW684): < 5.29
pIC50 (KM12): < 5.29
pIC50 (NCI-H1155): < 5.29
pIC50 (RKO): 5.46

Cc1cc([N+](=O)[O-])ccc1NS(=O)(=O)c1cc(Cl)ccc1Cl
pIC50 (SF-268): 5.22
pIC50 (COLO-668): 5.35
pIC50 (EW-18): 5.02
pIC50 (ES6): 5.52
pIC50 (GCIY): 5.53
pIC50 (DB): 5.09
pIC50 (KGN): 5.38
pIC50 (HuTu80): 5.94
pIC50 (MN-60): 4.57
pIC50 (NKM-1): 4.99
pIC50 (no-10): < 4.49
pIC50 (EKVX): 5.12
pIC50 (JVM-3): < 4.49
pIC50 (NB5): 4.84
pIC50 (BT-474): 5.35
pIC50 (TGBC24TKB): 5.28
pIC50 (TE-12): 5.53
pIC50 (IST-MEL1): 4.95
pIC50 (KY821): < 4.49
pIC50 (NB6): 4.87
pIC50 (HT-144): 5.53
pIC50 (MHH-PREB-1): 5.23
pIC50 (CW-2): < 4.49
pIC50 (EOL1): 5.31
pIC50 (RXF 393): < 4.49
pIC50 (NEC8): 4.66
pIC50 (MOLT-4): < 4.49
pIC50 (SW982): 5.04
pIC50 (CP66-MEL): 6.57
pIC50 (SK-N-FI): 4.78
pIC50 (8-MG-BA): 5.43
pIC50 (KNS-42): 4.90
pIC50 (MZ1-PC): 5.20
pIC50 (MS-1): 4.79
pIC50 (ETK-1): 5.20
pIC50 (OMC-1): 5.07
pIC50 (Lu-65): 4.50
pIC50 (MEG-01): < 4.49
pIC50 (DOHH-2): 4.76
pIC50 (LB2241-RCC): 5.58
pIC50 (BB65-RCC): 5.20
pIC50 (NCI-H1092): < 4.49
pIC50 (CTV-1): 5.30
pIC50 (NOMO-1): 5.21
pIC50 (TGW): < 4.49
pIC50 (MV4-11): 5.28
pIC50 (SW684): < 4.49
pIC50 (KM12): 5.22
pIC50 (NCI-H1155): < 4.49
pIC50 (RKO): 5.66
